# Experimental data as given in patent publication US9155778B2, “Tripeptides that down regulate the activity of plasma membrane transporters including sodium-D-glucose cotransporter SgIt1” (JULIUS-MAXMILLIANS-UNIVERSITAT WURZBURG, priority 2005, dated 2015).
# Like-named read-outs stand apart in the source and are kept apart here. Peptide text beside a SMILES is read from it.
# B1: hRS1 protein: purified human regulatory protein RS1 with six C-terminal histidines, SEQ ID NO: 2 (protein, listed as Homo sapiens)
# chain: MSSLPTSDGFNHPARSSGQSPDVGNPMSLARSVSASVCPIKPSDSDRIEPKAVKALKASAEFQLNSEKKEHLSLQDLSDHASSADHAPTDQSPAMPMQNSSEEITVAGNLEKSAERSTQGLKFHLHTRQEASLSVTSTRMHEPQMFLGEKDWHPENQNLSQVSDPQQHEEPGNEQYEVAQQKASHDQEYLCNIGDLELPEERQQNQHKIVDLEATMKGNGLPQNVDPPSAKKSIPSSECSGCSNSETFMEIDTAQQSLVTLLNSTGRQNANVKNIGALDLTLDNPLMEVETSKCNPSSEILNDSISTQDLQPPETNVEIPGTNKEYGHYSSPSLCGSCQPSVESAEESCPSITAALKELHELLVVSSKPASENTSEEVICQSETIAEGQTSIKDLSERWTQNEHLTQNEQCPQVSFHQAISVSVETEKLTGTSSDTGREAVENVNFRSLGDGLSTDKEGVPKSRESINKNRSVTVTSAKTSNQLHCTLGVEISPKLLAGEEDALNQTSEQTKSLSSNFILVKDLGQGIQNSVTDRPETRENVCPDASRPLLEYEPPTSHPSSSPAILPPLIFPATDIDRILRAGFTLQEALGALHRVGGNADLALLVLLAKNIVVPT
# modifications: C-terminal His6 tag
# Key:
# hSGLT1 = target: T1, hSGLT1 (Homo sapiens, UniProt P13866); experiment: hSGLT1 expressed [14C]AMG uptake in Xenopus oocytes after injection of hRS1 protein or peptides; format: cell-based
# T1 construct: expressed in transfected cells; host or cells: Xenopus laevis oocytes (cRNA injection)
# T1 sequence (P13866 1-664): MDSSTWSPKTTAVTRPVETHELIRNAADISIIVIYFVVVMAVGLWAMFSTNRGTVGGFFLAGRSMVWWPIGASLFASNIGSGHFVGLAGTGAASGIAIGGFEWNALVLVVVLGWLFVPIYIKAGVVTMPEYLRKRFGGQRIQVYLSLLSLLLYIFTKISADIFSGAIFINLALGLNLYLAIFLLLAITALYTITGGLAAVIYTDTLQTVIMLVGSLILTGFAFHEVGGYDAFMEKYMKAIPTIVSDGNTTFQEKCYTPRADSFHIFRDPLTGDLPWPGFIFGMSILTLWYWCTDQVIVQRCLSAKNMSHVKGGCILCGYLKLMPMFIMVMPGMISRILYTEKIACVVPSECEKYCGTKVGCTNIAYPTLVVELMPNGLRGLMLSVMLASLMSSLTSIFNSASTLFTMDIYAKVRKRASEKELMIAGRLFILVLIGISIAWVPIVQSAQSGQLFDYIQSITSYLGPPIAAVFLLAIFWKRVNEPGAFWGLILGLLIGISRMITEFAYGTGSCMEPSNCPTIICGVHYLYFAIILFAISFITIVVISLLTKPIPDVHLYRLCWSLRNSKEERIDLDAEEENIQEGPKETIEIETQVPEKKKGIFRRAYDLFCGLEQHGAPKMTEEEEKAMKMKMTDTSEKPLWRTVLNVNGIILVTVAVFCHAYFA
# rbSGLT1 = target: T2, rbSGLT1 (Oryctolagus cuniculus, UniProt P11170); experiment: rbSGLT1 expressed [14C]AMG uptake in oocytes after peptide injection; format: cell-based, rabbit; conditions: 50 nl containing 3 mM of each peptide, 30 min, 50 μM [14C]AMG; compared with hSGLT1
# T2 construct: expressed in transfected cells; host or cells: Xenopus laevis oocytes (cRNA injection)
# T2 sequence (P11170 1-662): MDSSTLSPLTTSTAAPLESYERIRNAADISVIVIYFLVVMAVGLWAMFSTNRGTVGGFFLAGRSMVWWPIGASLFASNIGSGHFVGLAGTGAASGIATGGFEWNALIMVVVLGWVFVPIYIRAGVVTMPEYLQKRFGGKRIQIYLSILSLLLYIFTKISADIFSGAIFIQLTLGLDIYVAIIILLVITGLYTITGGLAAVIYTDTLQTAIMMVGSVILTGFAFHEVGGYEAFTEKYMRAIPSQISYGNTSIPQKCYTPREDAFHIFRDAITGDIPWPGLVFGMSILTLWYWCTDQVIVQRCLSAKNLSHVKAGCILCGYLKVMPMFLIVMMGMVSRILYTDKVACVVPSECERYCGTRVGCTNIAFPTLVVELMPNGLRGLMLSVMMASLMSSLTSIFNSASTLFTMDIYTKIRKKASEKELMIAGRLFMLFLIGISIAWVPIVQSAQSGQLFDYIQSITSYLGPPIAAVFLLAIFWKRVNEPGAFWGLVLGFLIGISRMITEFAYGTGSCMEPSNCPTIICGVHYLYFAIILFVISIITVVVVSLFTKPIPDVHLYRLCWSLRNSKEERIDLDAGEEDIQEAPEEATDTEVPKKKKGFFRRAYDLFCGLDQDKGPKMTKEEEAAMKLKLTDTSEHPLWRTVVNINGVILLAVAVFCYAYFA
# Experimental: (§1) The oocytes were incubated for three days at 16° C. in ORi buffer (in mM: 5 HEPES-Tris, pH 7.4, 100 NaCl, 3 KCl, 2 CaCl2, and 1 MgCl2). […] The oocytes were superfused with Ori buffer titrated to pH 6.5, the membrane potential of the oocytes was clamped to −40 mV, and inward current induced by superfusion with Ori buffer (pH 6.5) containing 5 mM of a control dipeptide or 5 mM of the tested tripeptide was measured. • (D) Expression and Purification of hRS1
# To develop drugs on the basis of the identified peptides animal models are required.
# RS1 = experiment: Immunostaining of RS1 at the TGN in LLC-PK1 cells after brefeldin A; format: cell-based; conditions: 2 μg/ml brefeldin A, 1 or 5 min, subconfluent LLC-PK1 cells
# Experimental: For immunostaining, LLC-PK1 cells were grown on coverslips to about 50% confluence. The cells were washed twice with washing buffer (5 mM 3-(N-morpholino)propanesulfonic acid-NaOH, pH 7.4, 100 mM NaCl, 3 mM KCl, 2 mM CaCl2, and 1 mM MgCl2), fixed for 12 min with 4% (w/v) paraformaldehyde diluted in washing buffer, and washed twice again. Free aldehyde groups were quenched by 10 min incubation with washing buffer containing 40 mM glycine. For immunoreactions, washed cells were permeabilized by a 10-min incubation with washing buffer containing 0.25% (w/v) TritonX-114, and incubated over night at 4° C. with primary antibodies diluted in washing buffer. The dilutions of primary antibodies were as follows: rabbit-anti-RS1-Ab 1:50 (Valentin (2000), Biochim. Biophys. Acta, 1468, 367-380); QIS30 directed against SGLT1 1:400 (Kipp (2003), Am. J. Physiol., 285, C737-C749), sheep-anti-TGN46 1:125 (from Diagnostic International, Schriesheim, Germany). […]
# The specificity of the antibodies was controlled as follows. […] In controls, no cross-reactivity of the used secondary antibodies with false primary antibodies used in the same experiment was detected. […]
# hPEPT1 = target: T3, hPEPT1 (Homo sapiens, UniProt P46059); experiment: Electrogenic peptide transport by hPEPT1 in oocytes, two-electrode voltage clamp; format: cell-based; conditions: 5 mM peptide
# T3 construct: expressed in transfected cells; host or cells: Xenopus laevis oocytes (30 ng cRNA per oocyte)
# T3 sequence (P46059 1-708): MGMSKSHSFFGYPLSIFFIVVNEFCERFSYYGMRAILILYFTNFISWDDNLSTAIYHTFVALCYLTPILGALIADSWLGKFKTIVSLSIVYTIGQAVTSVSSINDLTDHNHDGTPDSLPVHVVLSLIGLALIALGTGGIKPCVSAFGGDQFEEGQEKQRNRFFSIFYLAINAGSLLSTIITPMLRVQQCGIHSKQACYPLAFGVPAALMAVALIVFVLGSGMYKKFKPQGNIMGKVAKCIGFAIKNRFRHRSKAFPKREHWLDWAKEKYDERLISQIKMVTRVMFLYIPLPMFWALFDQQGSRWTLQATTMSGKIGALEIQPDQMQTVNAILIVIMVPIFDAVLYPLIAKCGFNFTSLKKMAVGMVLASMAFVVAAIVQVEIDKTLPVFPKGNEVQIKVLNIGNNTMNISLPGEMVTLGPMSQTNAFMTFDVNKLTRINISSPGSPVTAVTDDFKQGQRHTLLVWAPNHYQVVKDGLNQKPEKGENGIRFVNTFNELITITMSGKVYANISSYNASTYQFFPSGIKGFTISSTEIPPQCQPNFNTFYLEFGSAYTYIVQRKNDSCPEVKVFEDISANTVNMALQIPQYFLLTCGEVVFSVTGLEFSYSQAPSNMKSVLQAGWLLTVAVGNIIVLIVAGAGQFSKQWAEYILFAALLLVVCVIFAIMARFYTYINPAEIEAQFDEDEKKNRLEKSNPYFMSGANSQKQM
# Experimental: as §1
# [1] = target: T4, human organic cation transporter 1 (hOCT1) (Homo sapiens, UniProt O15245); experiment: [14C]TEA uptake expressed by hOCT1 in oocytes; format: cell-based; conditions: intracellular AMG concentration of 0.1 mM
# T4 construct: expressed in transfected cells; host or cells: oocytes
# T4 sequence (O15245 1-554): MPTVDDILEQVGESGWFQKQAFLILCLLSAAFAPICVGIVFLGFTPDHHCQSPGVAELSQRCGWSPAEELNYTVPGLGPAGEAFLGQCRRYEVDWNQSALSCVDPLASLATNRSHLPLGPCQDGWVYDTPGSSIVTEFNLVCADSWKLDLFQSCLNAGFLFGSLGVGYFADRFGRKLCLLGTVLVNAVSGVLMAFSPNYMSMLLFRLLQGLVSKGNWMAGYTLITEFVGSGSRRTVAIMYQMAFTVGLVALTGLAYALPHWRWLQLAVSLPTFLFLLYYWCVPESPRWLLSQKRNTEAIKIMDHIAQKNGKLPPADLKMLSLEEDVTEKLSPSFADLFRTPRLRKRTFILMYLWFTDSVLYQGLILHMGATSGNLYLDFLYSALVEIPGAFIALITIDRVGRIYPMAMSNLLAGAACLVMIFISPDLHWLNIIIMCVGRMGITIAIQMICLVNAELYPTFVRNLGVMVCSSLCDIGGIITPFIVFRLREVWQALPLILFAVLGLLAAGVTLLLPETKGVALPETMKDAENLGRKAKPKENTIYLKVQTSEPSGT
# Experimental: Corresponding measurements were performed in the presence of intracellular AMG concentrations of 0.1 mM, <0.01 mM or 10 mM.
molecule,measurement,setting,value
SVQPCQENQ [reference compound],inhibition of [14C]AMG uptake by injected peptide,"hSGLT1; 50 nl/oocyte containing 1.5 mM peptide, 30 min before uptake",No inhibition
IKPSDSDRIEP [Isoleucine-Lysine-Proline-Serine-Aspartic acid-Serine-Aspartic acid -Arginine-Isoleucine-Glutamic acid-Proline],inhibition of glucose uptake expressed by hSGLT1,hSGLT1,about 50%
same,effect on glucose uptake expressed by rbSGLT1,rbSGLT1,same effect
SDSDRIEP [Serine-Aspartic acid-Serine-Aspartic acid-Arginine-Isoleucine-Glutamic acid-Proline],inhibition of glucose uptake expressed by hSGLT1,hSGLT1,about 50%
same,inhibition of hSGLT1 expressed AMG uptake after stimulation of protein kinase C,hSGLT1,not changed
same,inhibition of hSGLT1 expressed AMG uptake with coexpressed dominant negative mutant of dynamin I,hSGLT1,not changed
same,inhibitory effect on expression of hSGLT1 when the exocytotic pathway is blocked,hSGLT1,could be prevented
C[C@H]1CCC/C=C/[C@@H]2C[C@H](O)C[C@H]2[C@H](O)/C=C/C(=O)O1 [brefeldin A],RS1 immunoreactivity at the TGN / perinuclear compartment,RS1,released from the TGN
"NCC(=O)N[C@@H](CCC(N)=O)C(=O)O [GC, glycylglutamine, reference compound] (H-Gly-Gln-OH)",inward current induced in oocytes expressing hPEPT1,"hPEPT1; pH 6.5, clamped to −40 mV",significant inward currents
same,inward current in control oocytes not injected with hPEP1-cRNA,"hPEPT1; pH 6.5, data not shown",no inward currents
B1,hOCT1 expressed [14C]TEA uptake after injection,[1],appears to be inhibited
same,inhibitory effect on expression of hSGLT1 when the exocytotic pathway is blocked,hSGLT1,could be prevented
same,inhibition of AMG uptake by injected hRS1 protein in the presence of BTXB,"hSGLT1; 5 ng hRS1 plus 1.7 ng BTXB, 30 min",no inhibition
same,inhibition of hSGLT1 expressed AMG uptake after stimulation of protein kinase C,hSGLT1; PKC stimulated with DOG or PMA,increased
same,inhibition of hSGLT1 expressed AMG uptake with coexpressed dominant negative mutant of dynamin I,hSGLT1; dominant negative dynamin I coexpressed,reduced
same,inhibition of hSGLT1 expressed AMG uptake when endocytosis is inhibited,"hSGLT1; with clorpromazin, imipramin or filipin, data not shown",unchanged
